In patent US20260015341A1, “PI3K INHIBITOR, PREPARATION METHOD THEREFOR, AND USE THEREOF” (HINOVA PHARMACEUTICALS INC., priority 2022, published 2026) one finds IC50 data, which are given here for 29 compounds.

Each structure is given as a SMILES string.

Experiment [1] addresses PI3Kα[WT]/[E542K]/[E545K]/[H1047R]/PI3Kβ/γ/δ. Nature of the experiment: PI3K enzyme activity assay (ADP-Glo). The format is biochemical. To be noted: PI3K kinase reaction, isoform not given. The protocol:
Experimental Example 1: PI3Kα[WT]/[E542K]/[E545K]/[H1047R]/PI3Kβ/γ/δ Enzyme Activity Assay
PI3Kα[WT], PI3Kα[E542K], PI3Kα[E545K], PI3Kα[H1047R], PI3Kβ, PI3Kγ and PI3Kδ kinase reaction was performed in 384-well plate (PerkinElmer, #6008280), with a reaction system of 4 μL. PI3Kα[WT] enzyme solution (Promega, #V1721) or PI3Kα[E542K] enzyme solution (CarnaBio, #11-413-20N) or PI3Kα[E545K] enzyme solution (CarnaBio, #11-414-20N) or PI3Kα[H1047R] enzyme solution (Promega, #V1741) or PI3Kβ enzyme solution (Promega, #V1751) or PI3Kγ enzyme solution (ThermoFisher, #PV4786) or PI3Kδ enzyme solution (ThermoFisher, #PV6451) were added to 384-well plate, and then gradiently diluted compounds were added (starting at a final concentration of 10 μM, 3-fold dilution, 10 doses), followed by adding PIP2: 3PS (Promega, #V1701) and ATP solution (Promega, #V915B) to the plate. After incubation at 25° C. for 1 h, ADP-Glo reagent buffer (Promega, #V9102) was added to each well. The plate was sealed and incubated at 25° C. for 40 min, and then 10 μL of ADP-Glo detection buffer (Promega, #V9102) was added to each well. After incubating at 25° C. for 40 min, the chemiluminescence value was read using an instrument.
The experimental results are shown in the ADP Glo IC50 column in Table 2.
(ADP-Glo turns the ADP formed in a reaction into a luminescent signal.)

The subject of experiment [2] is T47D cells. Nature of the experiment: Inhibitory effects on the proliferation of T47D cells (CellTiter-Glo). It is filed as cell-based. To be noted: 7 days. The method, then:
Experimental Example 3: Experiment of Inhibitory Effects on the Proliferation of T47D Cells
T47D cells (ATCC. #HTB-133) were diluted with RPMI 1640 (Gibco #22400-089) containing 10% FBS (Hyclone #SH30084.03), seeded in 96-well plate (Biosharp #BS-MP-96W) at 1000 cells/well, and then cultured for 24 h. Then, gradiently diluted compounds were added (starting at a final concentration of 10 μM, 3-fold dilution, 9 dose concentrations), and the final volume was adjusted to 150 μL/well. The plate was incubated at 37° C. under […] for 7 days. After the cultivation was completed, CellTiter-Glo reagent (Promega #G7573) was added at 75 μL/well, and then the plate was further incubated at 25° C. for 10 min. After that, the chemiluminescence value was read using an instrument.
The results are shown in the T47D IC50 column in Table 2.
(In ATP-based viability assays light output follows the ATP content of the culture.)

Experiment [3] relates to MCF-10A cells. Nature of the experiment: Inhibitory effects on the proliferation of MCF-10A cells (CCK8). It is filed as cell-based. To be noted: 6 days. The method, then:
Experimental Example 2: Experiment of Inhibitory Effects on the Proliferation of MCF-10A Cells
MCF-10A cells (Cobioer Bio. #CBP60419MCF) were diluted with complete medium (Cobioer Bio. #CBP60419), seeded in 96-well plate (Corning #3599) at 500 cells/well, and then cultured for 24 h. Then, gradiently diluted compounds were added (starting at a final concentration of 10 μM, 3-fold dilution, 9 dose concentrations), and the final volume was adjusted to 100 μL/well. The plate was incubated at 37° C. under 5% CO2 for 6 days. After the cultivation was completed, CCK8 reagent (Signalway Antibody Bio. #CP002) was added at 10 μL/well, and then the plate was further incubated at 37° C. under 5% CO2 for 2-3 hours. The OD450 nm value was obtained by a microplate reader.
The results are shown in the MCF-OA IC50 column in Table 2.

As usually defined, the IC50 is the point on the concentration scale where inhibition reaches its midpoint. Read a high IC50 as weaker potency in that assay. In turn, `Cc1cc([C@@H](C)Nc2ccccc2C(=O)O)c2nc(N3CCC(C)(C)CC3)[nH]c(=O)c2c1` [Compound 4, (R)-2-((1-(2-(4,4-dimethylpiperidin-1-yl)-6-dimethyl-4-oxo-3,4-dihydroquinazolin-8-yl)ethyl)amino)benzoic Acid] registered an IC50 in experiment [1] of 1 to 5 µM.
`Cc1cc([C@@H](C)N[S@+]([O-])C(C)(C)C)c2nc(N3CCC(C)(C)CC3)n(C)c(=O)c2c1` [Compound 5] yielded an IC50 in experiment [1] of 1 to 5 µM.
Turning to `Cc1cc([C@@H](C)Nc2ccccc2C(=O)O)c2nc(N3CCC(C)(C)CC3)n(C)c(=O)c2c1` [Compound 6, (R)-2-((1-(2-(4,4-dimethylpiperidin-1-yl)-3,6-dimethyl-4-oxo-3,4-dihydroquinazolin-8-yl)ethyl)amino)benzoic Acid], the IC50 was under 1 µM in experiment [2] (Homo sapiens, 168 h) and under 1 µM in experiment [1].
As for `Cc1cc([C@@H](C)Nc2ccccc2S(N)(=O)=O)c2oc(-c3ccc(F)cc3F)cc(=O)c2c1` [Compound 27, (R)-2-((1-(2-(2,4-difluorophenyl)-6-methyl-4-oxo-4H-chromen-8-yl)ethyl)amino)benzenesulfonamide], the IC50 in experiment [2] (Homo sapiens, 168 h) is over 5 µM; in experiment [3] (Homo sapiens, 144 h), over 5 µM; in experiment [1] it was over 5 µM.
`Cc1cc([C@@H](C)Nc2ccccc2NS(C)(=O)=O)c2oc(-c3ccc(F)cc3F)cc(=O)c2c1` [Compound 28]: the IC50 was under 1 µM in experiment [2] (Homo sapiens, 168 h); over 5 µM in experiment [3] (Homo sapiens, 144 h); 1 to 5 µM in experiment [1].
The compound `Cc1cc([C@@H](C)Nc2ccccc2C(=O)O)c2nc(-c3c(F)cccc3F)n(C)c(=O)c2c1` [Compound 37, (R)-2-((1-(2-(2,6-difluorophenyl)-3,6-dimethyl-4-oxo-3,4-dihydroquinazolin-8-yl)ethyl)amino)benzoic Acid] gave a concentration for half-maximal inhibition (IC50) in experiment [1] of under 1 µM.
As to `Cc1ccc(N[C@H](C)c2cc(C)cc3c(=O)n(C)c(-c4c(F)cccc4F)nc23)c(C(=O)O)c1` [Compound 38], the IC50 in experiment [1] is under 1 µM.
`Cc1cc([C@@H](C)Nc2ccccc2C(=O)O)c2nc(-c3ccc(F)cc3F)cc(=O)n2c1` [Compound 41, (R)-2-((1-(2-(2,4-difluorophenyl)-7-methyl-4-oxo-4H-pyrido[1,2-a]pyrimidin-9-yl)ethyl)amino)benzoic Acid]: the IC50 in experiment [2] (Homo sapiens, 168 h) is 1 to 5 µM; in experiment [3] (Homo sapiens, 144 h), over 5 µM; in experiment [1] it was under 1 µM.
As for `Cc1cc([C@@H](C)Nc2ccnn2C)c2oc(-c3ccc(F)cc3F)cc(=O)c2c1` [Compound 42], the IC50 in experiment [1] lay within 1 to 5 µM.
Take `Cc1cc([C@@H](C)Nc2ccccc2C(=O)O)c2oc(-c3ccc4c(c3)OC(F)(F)O4)cc(=O)c2c1` [Compound 43]: the IC50 is under 1 µM in experiment [2] (Homo sapiens, 168 h); over 5 µM in experiment [3] (Homo sapiens, 144 h); under 1 µM in experiment [1].
With `Cc1cc([C@@H](C)Nc2ccc(Cl)nc2C(=O)O)c2nc(-c3ccc(F)cc3F)n(C)c(=O)c2c1` [Compound 44], the concentration for half-maximal inhibition (IC50) in experiment [2] (Homo sapiens, 168 h) was under 1 µM; in experiment [3] (Homo sapiens, 144 h) it was over 5 µM; in experiment [1], under 1 µM.
Turning to `Cc1cc([C@@H](C)Nc2ccccc2C(=O)O)c2nc(-c3ccc(F)cc3F)n(C)c(=O)c2c1` [Compound 45], the IC50 in experiment [2] (Homo sapiens, 168 h) is under 1 µM; in experiment [3] (Homo sapiens, 144 h) it was over 5 µM; in experiment [1] it was under 1 µM.
As to `Cc1cc([C@@H](C)Nc2ccc(Cl)nc2C(=O)O)c2oc(-c3ccc4c(c3)OC(F)(F)O4)cc(=O)c2c1` [Compound 46], the IC50 in experiment [2] (Homo sapiens, 168 h) was under 1 µM; in experiment [3] (Homo sapiens, 144 h) it was over 5 µM; in experiment [1] it was under 1 µM.
Consider `[2H]C([2H])([2H])NC(=O)c1ncccc1N[C@H](C)c1cc(C)cc2c(=O)cc(-c3ccc(F)cc3F)oc12` [Compound 48, (R)-3-((1-(2-(2,4-difluorophenyl)-6-methyl-4-oxo-4H-chromen-8-yl)ethyl)amino)-N-(methyl-d3)picolinamide], for which the IC50 is 1 to 5 µM in experiment [2] (Homo sapiens, 168 h); over 5 µM in experiment [3] (Homo sapiens, 144 h); 1 to 5 µM in experiment [1].
Consider `Cc1cc([C@@H](C)Nc2ccc(Cl)nc2C(=O)O)c2nc(-c3c(C)nn(C)c3C)n(C)c(=O)c2c1` [Compound 53], for which the IC50 was under 1 µM in experiment [2] (Homo sapiens, 168 h); 1 to 5 µM in experiment [3] (Homo sapiens, 144 h); under 1 µM in experiment [1].
Regarding `Cc1cc([C@@H](C)Nc2cccc3c2C(=O)NC3=O)c2oc(-c3ccc(F)cc3F)cc(=O)c2c1` [Compound 55], the IC50 in experiment [2] (Homo sapiens, 168 h) was over 5 µM; in experiment [3] (Homo sapiens, 144 h), over 5 µM; in experiment [1], 1 to 5 µM.
In the case of `Cc1cc([C@@H](C)Nc2ccccc2C(O)C(F)(F)F)c2oc(-c3ccc(F)cc3F)cc(=O)c2c1` (stereo partly drawn) [Compound 57, 2-(2,4-difluorophenyl)-6-methyl-8-((1R)-1-((2-(2,2,2-trifluoro-1-hydroxyethyl)phenyl)amino)ethyl)-4H-chromen-4-one], the IC50 was over 5 µM in experiment [2] (Homo sapiens, 168 h); over 5 µM in experiment [3] (Homo sapiens, 144 h); under 1 µM in experiment [1].
On to `Cc1cc([C@@H](C)Nc2ccccc2C(=O)O)c2oc(C3CCC(F)(F)CC3)cc(=O)c2c1` [Compound 58, (R)-2-((1-(2-(4,4-difluorocyclohexyl)-6-methyl-4-oxo-4H-chromen-8-yl)ethyl)amino)benzoic Acid], for which the IC50 in experiment [2] (Homo sapiens, 168 h) is under 1 µM; in experiment [3] (Homo sapiens, 144 h), over 5 µM; in experiment [1] it was under 1 µM.
For `Cc1cc([C@@H](C)Nc2ccccc2C(=O)O)c2nc(-c3cc(F)ccc3F)n(C)c(=O)c2c1` [Compound 59], the IC50 is under 1 µM in experiment [2] (Homo sapiens, 168 h); over 5 µM in experiment [3] (Homo sapiens, 144 h); under 1 µM in experiment [1].
Regarding `Cc1cc([C@@H](C)Nc2ccc(Cl)nc2C(=O)O)c2nc(-c3cc(F)ccc3F)n(C)c(=O)c2c1` [Compound 60], the IC50 in experiment [2] (Homo sapiens, 168 h) is under 1 µM; in experiment [3] (Homo sapiens, 144 h) it was over 5 µM; in experiment [1], under 1 µM.
As to `Cc1cc([C@@H](C)Nc2ccccc2C(=O)O)c2nc(-c3ccc(F)cc3)n(C)c(=O)c2c1` [Compound 61], the IC50 was under 1 µM in experiment [2] (Homo sapiens, 168 h); over 5 µM in experiment [3] (Homo sapiens, 144 h); under 1 µM in experiment [1].
Regarding `Cc1cc([C@@H](C)Nc2ccc[nH]c2=O)c2oc(-c3ccc(F)cc3F)cc(=O)c2c1` [Compound 62], the 50% inhibitory concentration (IC50) in experiment [2] (Homo sapiens, 168 h) was 1 to 5 µM; in experiment [3] (Homo sapiens, 144 h), over 5 µM; in experiment [1] it was under 1 µM.
On to `Cc1cc([C@@H](C)Nc2ccccc2C(=O)O)c2[nH]c(-c3ccc(F)cn3)[n+](C)c(=O)c2c1` [Compound 69], for which the IC50 in experiment [2] was under 1 µM; in experiment [3] it was over 5 µM; in experiment [1] it was under 1 µM.
Consider `Cc1cc([C@@H](C)Nc2cccc(F)c2C(=O)O)c2nc(-c3ccc(F)cn3)n(C)c(=O)c2c1` [Compound 70], for which the IC50 in experiment [2] (Homo sapiens, 168 h) was 1 to 5 µM; in experiment [3] (Homo sapiens, 144 h) it was over 5 µM; in experiment [1] it was under 1 µM.
The like results for `Cc1cc([C@@H](C)Nc2cccc(F)c2C(=O)O)c2nc(-c3ccc(C(F)(F)F)cn3)n(C)c(=O)c2c1` [Compound 71] were, in that order, over 5 µM, over 5 µM and 1 to 5 µM.
On to `Cc1cc([C@@H](C)Nc2cccc(F)c2C(=O)O)c2nc(-c3ccc(F)cc3)n(C)c(=O)c2c1` [Compound 72], for which the IC50 was 1 to 5 µM in experiment [2] (Homo sapiens, 168 h); over 5 µM in experiment [3] (Homo sapiens, 144 h); under 1 µM in experiment [1].
In the same order, the values of `C[C@@H](Nc1cccc(F)c1C(=O)O)c1cc(F)cc2c(=O)n(C)c(-c3ccc(F)cn3)nc12` [Compound 73] are 1 to 5 µM, over 5 µM and under 1 µM.
Take `C[C@@H](Nc1ccc(F)cc1C(=O)O)c1cc(F)cc2c(=O)n(C)c(-c3ccc(F)cn3)nc12` [Compound 77]: the IC50 in experiment [2] (Homo sapiens, 168 h) is under 1 µM; in experiment [3] (Homo sapiens, 144 h) it was over 5 µM; in experiment [1], under 1 µM.
As for `Cc1cc([C@@H](C)Nc2ccc(Cl)nc2C(=O)O)c2nc(-c3ncc(Cl)cn3)n(C)c(=O)c2c1` [Compound 96], the IC50 in experiment [1] was under 1 µM.
